Data from paper PMC8437281 (PLoS ONE, 2021).
Where “and” joins values, the source holds several entries; their conditions need not be identical. Equal entries are not always repeated. Where two headings read alike, the source gives them in different places. Where no end group is shown, it is not given here.

Experiments:
[1] = system: C. difficile 630; settings: C. difficile 630, BHI broth, 24 h, 37°C, anaerobic, OD 600 nm; triplicate
[2] = system: C. difficile 630; settings: lowest concentration killing ≥99.9%, after 24 h incubation plated on BHI agar, 37°C, anaerobic, triplicate
[3] = system: C. difficile 630; assay: microbe, parasite or virus in culture; settings: Clostridioides difficile, 630, 24 h
[4] = system: Caco-2 cells

Compound	MIC [1] [µM]	Minimum bactericidal concentration (MBC) [2] [µM]	MIC [3]	Reduction of viability of Caco-2 cells ([4]; Caco-2) [%]	Viability of Caco-2 cells ([4]; Caco-2, 33.94 µM) [%]
KWKLFKKIGAVLKVL-NH2 [CM]	2.21	2.21			
CN[C@H](CC(C)C)C(=O)N[C@H]1C(=O)N[C@@H](CC(N)=O)C(=O)N[C@H]2C(=O)N[C@H]3C(=O)N[C@H](C(=O)N[C@H](C(=O)O)c4cc(O)cc(O)c4-c4cc3ccc4O)[C@H](O)c3ccc(c(Cl)c3)Oc3cc2cc(c3O[C@@H]2O[C@H](CO)[C@@H](O)[C@H](O)[C@H]2O[C@H]2C[C@](C)(N)[C@H](O)[C@H](C)O2)Oc2ccc(cc2Cl)[C@H]1O [Vancomycin]			0.488 µg/mL and 0.34 µM		
KWKLFKKIGAVLKVLA-NH2 [CM-A]	1.06	4.24		11	40
